Measured values: PubChem BioAssay (NCI)
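A five-concentration, 48-hour dose response in 96-well plates underlies each endpoint, interpolated linearly between surrounding concentrations. TGI: concentration producing complete growth inhibition.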

Columns and labels:
Assay in all cases: NCI anticancer screen, dose series, 48 h
HCT-116 colon = system: HCT-116 colon
UO-31 renal = system: UO-31 renal
SF-268 CNS = system: SF-268 CNS
A549 NSCLC = system: A549 NSCLC
SK-MEL-28 melanoma = system: SK-MEL-28 melanoma
HOP-92 NSCLC = system: HOP-92 NSCLC
CAKI-1 renal = system: CAKI-1 renal
HS 578T breast = system: HS 578T breast
DU-145 prostate = system: DU-145 prostate
786-0 renal = system: 786-0 renal
HL-60(TB) leukemia = system: HL-60(TB) leukemia
SNB-75 CNS = system: SNB-75 CNS
NCI/ADR-RES ovarian = system: NCI/ADR-RES ovarian
MDA-MB-231 breast = system: MDA-MB-231 breast
OVCAR-8 ovarian = system: OVCAR-8 ovarian
OVCAR-3 ovarian = system: OVCAR-3 ovarian
HT29 colon = system: HT29 colon
COLO 205 colon = system: COLO 205 colon
CCRF-CEM leukemia = system: CCRF-CEM leukemia
HCC-2998 colon = system: HCC-2998 colon
LOX IMVI melanoma = system: LOX IMVI melanoma
SF-295 CNS = system: SF-295 CNS
ACHN renal = system: ACHN renal
K-562 leukemia = system: K-562 leukemia
U251 CNS = system: U251 CNS
T-47D breast = system: T-47D breast
SF-539 CNS = system: SF-539 CNS
M14 melanoma = system: M14 melanoma
NCI-H226 lung = system: NCI-H226 lung
MDA-N = system: MDA-N
NCI-H23 lung = system: NCI-H23 lung
HOP-62 NSCLC = system: HOP-62 NSCLC
SR leukemia = system: SR leukemia
MDA-MB-435 = system: MDA-MB-435
IGROV1 ovarian = system: IGROV1 ovarian
UACC-62 melanoma = system: UACC-62 melanoma
RPMI-8226 leukemia = system: RPMI-8226 leukemia
SNB-19 CNS = system: SNB-19 CNS
TK-10 renal = system: TK-10 renal
MALME-3M melanoma = system: MALME-3M melanoma
SN12C renal = system: SN12C renal
RXF 393 renal = system: RXF 393 renal
NCI-H460 lung = system: NCI-H460 lung
SK-MEL-5 melanoma = system: SK-MEL-5 melanoma
KM12 colon = system: KM12 colon
HCT-15 colon = system: HCT-15 colon
OVCAR-5 ovarian = system: OVCAR-5 ovarian
PC-3 prostate = system: PC-3 prostate
EKVX NSCLC = system: EKVX NSCLC
SK-OV-3 ovarian = system: SK-OV-3 ovarian
OVCAR-4 ovarian = system: OVCAR-4 ovarian
UACC-257 melanoma = system: UACC-257 melanoma
MOLT-4 leukemia = system: MOLT-4 leukemia
A498 renal = system: A498 renal
MCF7 breast = system: MCF7 breast
SK-MEL-2 melanoma = system: SK-MEL-2 melanoma
NCI-H522 lung = system: NCI-H522 lung
SW-620 colon = system: SW-620 colon

Compound: CCCCOP(=O)(OCCCC)C(NS(=O)(=O)c1ccccc1)(C(=O)OCC)C(F)(F)F (stereo not given)
- TGI (HCT-116 colon): 66.9 µM
- TGI (UO-31 renal): > 100 µM
- TGI (SF-268 CNS): > 100 µM
- TGI (A549 NSCLC): > 100 µM
- TGI (SK-MEL-28 melanoma): 78.8 µM
- TGI (HOP-92 NSCLC): 71.8 µM
- TGI (CAKI-1 renal): > 100 µM
- TGI (HS 578T breast): > 100 µM
- TGI (DU-145 prostate): > 100 µM
- TGI (786-0 renal): 88.1 µM
- TGI (HL-60(TB) leukemia): 47.8 µM
- TGI (SNB-75 CNS): 78.1 µM
- TGI (NCI/ADR-RES ovarian): 64.6 µM
- TGI (MDA-MB-231 breast): 36.7 µM
- TGI (OVCAR-8 ovarian): > 100 µM
- TGI (OVCAR-3 ovarian): 59.5 µM
- TGI (HT29 colon): > 100 µM
- TGI (COLO 205 colon): 38.7 µM
- TGI (CCRF-CEM leukemia): 72.5 µM
- TGI (HCC-2998 colon): > 100 µM
- TGI (LOX IMVI melanoma): 96.9 µM
- TGI (SF-295 CNS): > 100 µM
- TGI (ACHN renal): 85.1 µM
- TGI (K-562 leukemia): 59.9 µM
- TGI (U251 CNS): 65 µM
- TGI (T-47D breast): > 100 µM
- TGI (SF-539 CNS): 38.3 µM
- TGI (M14 melanoma): 68 µM
- TGI (NCI-H226 lung): 74.9 µM
- TGI (MDA-N): > 100 µM
- TGI (NCI-H23 lung): > 100 µM
- TGI (HOP-62 NSCLC): 61.4 µM
- TGI (SR leukemia): > 100 µM
- TGI (MDA-MB-435): 56.3 µM
- TGI (IGROV1 ovarian): 65.6 µM
- TGI (UACC-62 melanoma): > 100 µM
- TGI (RPMI-8226 leukemia): 66.1 µM
- TGI (SNB-19 CNS): > 100 µM
- TGI (TK-10 renal): 87.6 µM
- TGI (MALME-3M melanoma): 45.4 µM
- TGI (SN12C renal): 90.4 µM
- TGI (RXF 393 renal): 53 µM
- TGI (NCI-H460 lung): > 100 µM
- TGI (SK-MEL-5 melanoma): 33.9 µM
- TGI (KM12 colon): 93.2 µM
- TGI (HCT-15 colon): > 100 µM
- TGI (OVCAR-5 ovarian): > 100 µM
- TGI (PC-3 prostate): > 100 µM
- TGI (EKVX NSCLC): > 100 µM
- TGI (SK-OV-3 ovarian): > 100 µM
- TGI (OVCAR-4 ovarian): 94.9 µM
- TGI (UACC-257 melanoma): 79.3 µM
- TGI (MOLT-4 leukemia): 58.1 µM
- TGI (A498 renal): 76.1 µM
- TGI (MCF7 breast): 76.1 µM

Compound: Cc1ccc(N=c2oc3c(ccc4ccccc43)nc2Nc2ccc(C)cc2)cc1
- TGI (HCT-116 colon): > 100 µM
- TGI (UO-31 renal): > 100 µM
- TGI (SF-268 CNS): > 100 µM
- TGI (A549 NSCLC): > 100 µM
- TGI (SK-MEL-28 melanoma): > 100 µM
- TGI (HOP-92 NSCLC): > 100 µM
- TGI (CAKI-1 renal): > 100 µM
- TGI (HS 578T breast): > 100 µM
- TGI (DU-145 prostate): > 100 µM
- TGI (786-0 renal): > 100 µM
- TGI (HL-60(TB) leukemia): > 100 µM
- TGI (SNB-75 CNS): > 100 µM
- TGI (NCI/ADR-RES ovarian): > 100 µM
- TGI (MDA-MB-231 breast): > 100 µM
- TGI (OVCAR-8 ovarian): > 100 µM
- TGI (HT29 colon): > 100 µM
- TGI (COLO 205 colon): > 100 µM
- TGI (CCRF-CEM leukemia): > 100 µM
- TGI (HCC-2998 colon): > 100 µM
- TGI (LOX IMVI melanoma): > 100 µM
- TGI (SK-MEL-2 melanoma): > 100 µM
- TGI (SF-295 CNS): > 100 µM
- TGI (ACHN renal): > 100 µM
- TGI (K-562 leukemia): > 100 µM
- TGI (U251 CNS): > 100 µM
- TGI (T-47D breast): > 100 µM
- TGI (NCI-H522 lung): > 100 µM
- TGI (SF-539 CNS): > 100 µM
- TGI (NCI-H226 lung): > 100 µM
- TGI (MDA-N): > 100 µM
- TGI (NCI-H23 lung): > 100 µM
- TGI (HOP-62 NSCLC): > 100 µM
- TGI (SR leukemia): > 100 µM
- TGI (MDA-MB-435): > 100 µM
- TGI (IGROV1 ovarian): > 100 µM
- TGI (UACC-62 melanoma): > 100 µM
- TGI (RPMI-8226 leukemia): > 100 µM
- TGI (SNB-19 CNS): > 100 µM
- TGI (TK-10 renal): > 100 µM
- TGI (MALME-3M melanoma): > 100 µM
- TGI (SN12C renal): > 100 µM
- TGI (RXF 393 renal): > 100 µM
- TGI (NCI-H460 lung): > 100 µM
- TGI (SK-MEL-5 melanoma): > 100 µM
- TGI (SW-620 colon): > 100 µM
- TGI (KM12 colon): > 100 µM
- TGI (HCT-15 colon): > 100 µM
- TGI (OVCAR-5 ovarian): > 100 µM
- TGI (PC-3 prostate): > 100 µM
- TGI (EKVX NSCLC): > 100 µM
- TGI (SK-OV-3 ovarian): > 100 µM
- TGI (OVCAR-4 ovarian): > 100 µM
- TGI (UACC-257 melanoma): > 100 µM
- TGI (MOLT-4 leukemia): > 100 µM
- TGI (A498 renal): > 100 µM
